# Measured values reported in US20080271368A1, “METHOD OF PROMOTING PLANT GROWTH AND IMPROVING PLANT QUALITY AND GROWTH-PROMOTING AGENT AND QUALITY-IMPROVING AGENT TO BE USED IN THE METHOD” (priority 2006, published 2008).
# System: rice seedlings
# Assay: Rice yield test
# Format: in vivo
# Conditions: for Average yield: average of nine bunches
# Description: A predetermined amount of chemicals was weighed and embedded into soil together with roots of rice seedlings when the seedlings are planted in a paddy field in early May. […] Nine bunches were planted per one test field. After that, usual wet-rice culture was carried out until harvesting in early October. The rice crop was dried and weighed to determine the yield. Good unhusked rice obtained by wind selection was used as the test sample.
structure (smiles),measurement,setting,value
O=P([O-])(O)O.O=P([O-])(O)O.[Ca+2] [Calcium dihydrogen phosphate],Average yield,"treated amount 1 g per 1 m^2, good unhusked rice",196 g
same,Average yield (%),"treated amount 1 g per 1 m^2, untreated = 100",(90) %
same,Average yield,"treated amount 10 g per 1 m^2, good unhusked rice",230 g
same,Average yield (%),"treated amount 10 g per 1 m^2, untreated = 100",(105) %
